Reference: ChEMBL document CHEMBL1201862, “PubChem BioAssay data set” (2004)
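Method: 48-hour compound exposure of cells in 96-well plates, five concentrations, linear interpolation of endpoints. GI50 marks 50% less growth.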 The source made the active and inactive calls. Rule as the data show it: active = GI50 up to about 1.1 µM and inactive = higher.

What was measured:
Assay in all cases: NCI anticancer screen, dose series, 48 h
[1] = test system: SK-MEL-2
[2] = test system: 786-0
[3] = test system: IGROV-1
[4] = test system: HCC 2998
[5] = test system: LXFL 529
[6] = test system: NCI-H460
[7] = test system: SK-MEL-5
[8] = test system: SK-MEL-28
[9] = test system: UACC-257
[10] = test system: HCT-116
[11] = test system: SF-295
[12] = test system: EKVX
[13] = test system: A498
[14] = test system: HT-29
[15] = test system: RXF 393
[16] = test system: MOLT-4
[17] = test system: OVCAR-5

| Compound | GI50 [1] | GI50 [2] | GI50 [3] | GI50 [4] | GI50 [5] | GI50 [6] | GI50 [7] | GI50 [8] | GI50 [9] | GI50 [10] | GI50 [11] | GI50 [12] | GI50 [13] | GI50 [14] | GI50 [15] | GI50 [16] | GI50 [17] |
| --- | --- | --- | --- | --- | --- | --- | --- | --- | --- | --- | --- | --- | --- | --- | --- | --- | --- |
| Cc1csc(=S)n1OC(=O)NC1CCCCC1 | 68.4 µM (inactive) | 19 µM (inactive) | > 100 µM (inactive) | > 100 µM (inactive) | 13.8 µM (inactive) | > 100 µM (inactive) | > 51.4 µM (inactive) | > 34.6 µM (inactive) | > 60.1 µM (inactive) | > 58.2 µM (inactive) | > 100 µM (inactive) | > 100 µM (inactive) | > 92.5 µM (inactive) | > 48.9 µM (inactive) | > 100 µM (inactive) | 9.77 µM (inactive) |  |
| C/N=c1\ss/c(=N\C(=S)N(C)C)n1C | > 100 µM (inactive) | > 100 µM (inactive) | > 100 µM (inactive) | > 100 µM (inactive) | > 100 µM (inactive) | > 100 µM (inactive) | > 100 µM (inactive) | > 100 µM (inactive) | > 100 µM (inactive) | > 100 µM (inactive) | > 100 µM (inactive) | > 100 µM (inactive) | > 100 µM (inactive) | > 100 µM (inactive) | > 100 µM (inactive) | > 100 µM (inactive) | > 100 µM (inactive) |
| O=[As](O)(O)c1cc(/N=N/c2ccc(-c3ccc(/N=N/c4cc([As](=O)(O)O)c(O)cc4O)cc3)cc2)c(O)cc1O | > 100 µM (inactive) | > 100 µM (inactive) | > 100 µM (inactive) | > 100 µM (inactive) | > 100 µM (inactive) | > 100 µM (inactive) | > 88.1 µM (inactive) | > 100 µM (inactive) | > 100 µM (inactive) | > 100 µM (inactive) | > 100 µM (inactive) | > 100 µM (inactive) | > 56 µM (inactive) | > 95.1 µM (inactive) | > 100 µM (inactive) | > 100 µM (inactive) | > 69.5 µM (inactive) |
| CCCCCCCCCC(=O)CC(=O)c1ccc(O)cc1O | 18.6 µM (inactive) | 33.5 µM (inactive) | 31.5 µM (inactive) | 21.3 µM (inactive) | 30.5 µM (inactive) | 31.8 µM (inactive) | 17.6 µM (inactive) | 39.8 µM (inactive) | 28.8 µM (inactive) | 26.1 µM (inactive) | 25.6 µM (inactive) | 25.9 µM (inactive) |  | 35.9 µM (inactive) | 28.4 µM (inactive) | 17.6 µM (inactive) | 21.1 µM (inactive) |
| Cc1ccc(NC(=S)SCCC(=O)O)cc1 | > 100 µM (inactive) | > 100 µM (inactive) |  | > 100 µM (inactive) | > 100 µM (inactive) | > 100 µM (inactive) |  | > 100 µM (inactive) | > 100 µM (inactive) | > 100 µM (inactive) | > 100 µM (inactive) | > 100 µM (inactive) | > 100 µM (inactive) | > 100 µM (inactive) | > 100 µM (inactive) | > 100 µM (inactive) | > 100 µM (inactive) |
| CCC12C=CCN3CCC4(C(=C(C(=O)OC)C1)Nc1ccccc14)[C@H]32 (stereo partly specified) | 19.1 µM (inactive) | 23.4 µM (inactive) | 39.1 µM (inactive) | 33.3 µM (inactive) | 31.6 µM (inactive) | 18.8 µM (inactive) | 27.2 µM (inactive) | 41.7 µM (inactive) | 34.4 µM (inactive) | 30.8 µM (inactive) | 28.3 µM (inactive) | 51.1 µM (inactive) | 29.6 µM (inactive) | 22.6 µM (inactive) | 24.9 µM (inactive) | 26.7 µM (inactive) | 70.8 µM (inactive) |
| CCOC(=O)C(Cc1c[nH]c2cc([N+](=O)[O-])ccc12)NS(=O)(=O)c1ccc2ccccc2c1 (stereo unspecified) | 17.4 µM (inactive) | 26.5 µM (inactive) | 21.4 µM (inactive) | 24.2 µM (inactive) | 17.5 µM (inactive) | 18.1 µM (inactive) |  | 18.2 µM (inactive) | 15.3 µM (inactive) | 17.2 µM (inactive) | 17.3 µM (inactive) | 29.1 µM (inactive) | 29.2 µM (inactive) | 17.2 µM (inactive) | 14.7 µM (inactive) | 26 µM (inactive) |  |
| Nc1nc(N)c(-c2ccccc2)c(CCC(=O)Nc2ccc(Cl)cc2)n1 | > 100 µM (inactive) | > 100 µM (inactive) | > 100 µM (inactive) | > 100 µM (inactive) | > 100 µM (inactive) | > 100 µM (inactive) | > 100 µM (inactive) | > 100 µM (inactive) | > 100 µM (inactive) | > 100 µM (inactive) | > 100 µM (inactive) | > 100 µM (inactive) | > 100 µM (inactive) | > 100 µM (inactive) |  | > 100 µM (inactive) | > 100 µM (inactive) |
| COC1=CCC=C(C[C@@H]2NCCc3cc(OC)c(OC)cc32)C1 | > 100 µM (inactive) | > 100 µM (inactive) | > 100 µM (inactive) | > 100 µM (inactive) | > 100 µM (inactive) | > 100 µM (inactive) | > 100 µM (inactive) | > 100 µM (inactive) | > 100 µM (inactive) | > 100 µM (inactive) | > 100 µM (inactive) | > 100 µM (inactive) | > 100 µM (inactive) | > 100 µM (inactive) | > 100 µM (inactive) | > 100 µM (inactive) | > 100 µM (inactive) |
| Cn1cc(NC(=O)c2cc(NC(=O)CCCCCCCCC(=O)Nc3cc(C(=O)Nc4cc(C(=O)NCCC(N)N)n(C)c4)n(C)c3)cn2C)cc1C(=O)NCCC(=N)N | 19.2 µM (inactive) | 21.9 µM (inactive) | 24.5 µM (inactive) | 24.7 µM (inactive) | 27.2 µM (inactive) | 20.1 µM (inactive) | 4.74 µM (inactive) | 12.1 µM (inactive) | 13.7 µM (inactive) | 20 µM (inactive) | 23.3 µM (inactive) | 20.3 µM (inactive) |  | 18.8 µM (inactive) | 21.2 µM (inactive) | 19.9 µM (inactive) | 21.4 µM (inactive) |
| Cc1cccc(NC(=O)C(=O)C(C(=O)c2ccc3ccccc3c2)C2OC(=O)c3ccccc32)c1C (stereo unspecified) | 13.2 µM (inactive) | 6.15 µM (inactive) | 17.5 µM (inactive) | 6.03 µM (inactive) | 9.55 µM (inactive) | 9.16 µM (inactive) | 12.4 µM (inactive) | 5.2 µM (inactive) | 10.7 µM (inactive) | 9.68 µM (inactive) |  | 26.1 µM (inactive) | 10.1 µM (inactive) | 28.1 µM (inactive) | 2.39 µM (inactive) | 3.78 µM (inactive) | 21.7 µM (inactive) |
| CCOC(=O)NC(=O)c1cn(C2OC(COC(=O)CCCCCCCCC(=O)OCC3OC(n4cc(C(=O)NC(=O)OCC)c(=O)[nH]c4=O)C4OC(C)(C)OC34)C3OC(C)(C)OC32)c(=O)[nH]c1=O (stereo unspecified) | 52.1 µM (inactive) | > 100 µM (inactive) | > 100 µM (inactive) | 57.3 µM (inactive) | 88.5 µM (inactive) | > 100 µM (inactive) | 54.1 µM (inactive) | 84.1 µM (inactive) | > 100 µM (inactive) | 39.6 µM (inactive) | > 100 µM (inactive) | > 100 µM (inactive) | > 100 µM (inactive) | 79.8 µM (inactive) | > 100 µM (inactive) | 35.6 µM (inactive) | > 100 µM (inactive) |
| OCc1ccc(C2CC(c3ccco3)=NN2c2ccccc2)o1 (stereo unspecified) | > 100 µM (inactive) | > 100 µM (inactive) | > 100 µM (inactive) |  | > 100 µM (inactive) | > 100 µM (inactive) | > 100 µM (inactive) | > 100 µM (inactive) |  | > 100 µM (inactive) | > 100 µM (inactive) | > 100 µM (inactive) |  | > 100 µM (inactive) | > 100 µM (inactive) | > 100 µM (inactive) | > 100 µM (inactive) |
| COc1cc2ccc3c4cc(OC)c(OC(C)C)cc4cnc3c2cc1OC | > 100 µM (inactive) | > 100 µM (inactive) | > 100 µM (inactive) | > 100 µM (inactive) | > 100 µM (inactive) | > 100 µM (inactive) | > 100 µM (inactive) | > 100 µM (inactive) | > 100 µM (inactive) | > 100 µM (inactive) | > 100 µM (inactive) | > 100 µM (inactive) |  | > 100 µM (inactive) | > 100 µM (inactive) | > 100 µM (inactive) | > 100 µM (inactive) |
| CCOC(=O)NC(=O)c1cn(CCOC(=O)CCCCCCCCC(=O)OCCn2cc(C(=O)NC(=O)OCC)c(=O)[nH]c2=O)c(=O)[nH]c1=O | > 100 µM (inactive) | > 100 µM (inactive) | > 100 µM (inactive) | > 100 µM (inactive) | > 100 µM (inactive) | > 100 µM (inactive) | > 100 µM (inactive) | > 100 µM (inactive) | > 100 µM (inactive) | > 100 µM (inactive) | > 100 µM (inactive) | > 100 µM (inactive) | > 100 µM (inactive) | > 100 µM (inactive) | > 100 µM (inactive) | > 100 µM (inactive) | > 100 µM (inactive) |
| COc1cc(C(C#N)NNC(=O)c2ccccc2O)ccc1O (stereo unspecified) | 2.48 µM (inactive) | 2.7 µM (inactive) | 1.54 µM (inactive) |  | 1.6 µM (inactive) | 1.47 µM (inactive) | 9.95 µM (inactive) | 30.6 µM (inactive) | 6.35 µM (inactive) | 2.26 µM (inactive) | 3.28 µM (inactive) |  |  | 23.4 µM (inactive) | 0.349 µM (active) | 6.15 µM (inactive) | 10.7 µM (inactive) |
| Cc1cccc(Cl)c1NC(=O)c1cccc([N+](=O)[O-])c1O |  | 56 µM (inactive) | 34.5 µM (inactive) | 31.7 µM (inactive) | 50.6 µM (inactive) | 29 µM (inactive) |  | 41.5 µM (inactive) | 28.4 µM (inactive) | 43.3 µM (inactive) | 28.9 µM (inactive) | 39.6 µM (inactive) | 33 µM (inactive) | 41.8 µM (inactive) | 16.7 µM (inactive) | 29.2 µM (inactive) | 23.9 µM (inactive) |
